In patent publication US9192567B2, “Method for treating eye disease or conditions affecting the posterior segment of the eye” (SANTEN SAS, priority 2006, dated 2015):

Assay: Intraocular pharmacokinetics of dexamethasone palmitate and dexamethasone following intravitreal administration
Conditions: following IVT injection of 800 ug of prodrug
Description: Analytes and internal standard (roxithromycine) were extracted from the tissues using acetonitrile and separated by reverse phase liquid chromatography with a C8 column and a gradient mobile phase. […] The unweighed linear model was applied.
All concentrations are expressed in ng/g.

time for which therapeutic levels were maintained in the target tissues: at least 2 months
SMILES: C[C@@H]1C[C@H]2[C@@H]3CCC4=CC(=O)C=C[C@]4(C)[C@@]3(F)[C@@H](O)C[C@]2(C)[C@@]1(O)C(=O)CO [D, dexamethasone]
